Test results: US6583309B1 (University of Medicine and Dentistry of New Jersey, priority 1999, dated 2003)

What follows are molecules tested against TAR RNA (assay: In vitro binding of resin-bound compounds to TAR RNA (OD260 of unbound RNA)). Details: in vitro assay; compounds of formula I on TentaGel beads incubated with TAR RNA overnight at 4° C. in TK buffer; read-out: Kd (nM), binding constants.
Parameters: species or system HIV
Procedure, shortened: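 Ten beads of TentaGel-bound compound in TK buffer were incubated overnight at 4 °C with T7-transcribed 29-residue TAR RNA ([…]). Unbound RNA in the supernatant was quantified by OD260. KD was calculated from equilibrium RNA concentrations assuming simple bimolecular binding.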
In the case of `NCCCC[C@@H](COC(N)=O)NC(=O)OC[C@H](CCCCN)NC(=O)OC[C@H](N)CCC(N)=O` [Compound CR, Carbamic acid 6-amino-2-[6-amino-2-(2-amino-4-carbamoyl-butoxycarbonylamino)-hexyloxycarbonylamino]-hexyl ester], the Kd is reported as 981 nM.
`NCCCC[C@H](N)COC(=O)N(CCCCN)CC(=O)N[C@@H](CCCCN)COC(N)=O` [Compound CS, Carbamic acid 6-amino-2-{2-[(4-amino-butyl)-(2,6-diamino-hexyloxycarbonyl)-amino]-acetylamino}-hexyl ester] gave a Kd of 491 nM.
`NCCCC[C@@H](N)COC(=O)N(CCCCN)CC(=O)N[C@@H](CCCCN)COC(N)=O` [Compound CT, Carbamic acid 6-amino-2-{2-[(4-amino-butyl)-(2,6-diamino-hexyloxycarbonyl)-amino]-acetylamino}-hexyl ester] showed a Kd of 147 nM.
`NCCCC[C@@H](COC(N)=O)NC(=O)CN(CCCCN)C(=O)[C@@H](N)CCCCN` [Compound CU, Carbamic acid 6-amino-2-{2-[(4-amino-butyl)-(2,6-diamino-hexanoyl)-amino]-acetylamino}-hexyl ester] gave a Kd of 718 nM.
`NCCCC[C@@H](COC(N)=O)NC(=O)CN(CCCCN)C(=O)[C@H](N)CCCCN` [Compound CV, Carbamic acid 6-amino-2-{2-[(4-amino-butyl)-(2,6-diamino-hexanoyl)-amino]-acetylamino}-hexyl ester] gave a Kd of 567 nM.
With `NCCCCCNCC(=O)N(CCCCN)CC(=O)N[C@@H](CCCCN)COC(N)=O` [Compound CW] the Kd was 3980 nM.
Work on `NCCCCCCCNCC(=O)N(CCCCN)CC(=O)N[C@@H](CCCCN)COC(N)=O` [Compound CX, Carbamic acid 6-amino-2-(2-{(4-amino-butyl)-[2-(7-amino-heptylamino)-acetyl]-amino}-acetylamino)-hexyl ester] yielded a Kd of 256 nM.
For `NCCCCNCC(=O)N(CCCCN)CC(=O)N[C@@H](CCCCN)COC(N)=O` [Compound CY, Carbamic acid 6-amino-2-(2-{(4-amino-butyl)-[2-(4-amino-butylamino)-acetyl]-amino}-acetylamino)-hexyl ester], the Kd was 523 nM.
For `N=C(N)NCCC[C@H](N)COC(=O)N(CCCCN)CC(=O)N[C@@H](CCCCN)COC(N)=O` [Compound CZ, Carbamic acid 6-amino-2-{2-[(4-amino-butyl)-(2-amino-5-guanidino-pentyloxycarbonyl)-amino]-acetylamino}-hexyl ester], the Kd was 183 nM.
Work on `NCCCC[C@@H](COC(N)=O)NC(=O)CN(CCCCN)C(=O)OC[C@H](N)CCC(N)=O` [Compound DA, Carbamic acid 6-amino-2-{2-[(4-amino-butyl)-(2-amino-4-carbamoyl-butoxycarbonyl)-amino]-acetylamino}-hexyl ester] yielded a Kd of 301 nM.
Work on `NCCCCCN(CC(=O)N[C@@H](CCCCN)COC(N)=O)C(=O)OC[C@@H](N)CCCCN` [Compound DB, Carbamic acid 6-amino-2-{2-[(5-amino-pentyl)-(2,6-diamino-hexyloxycarbonyl)-amino]-acetylamino}-hexyl ester] yielded a Kd of 256 nM.
Molecule `NCCCCCN(CC(=O)N[C@@H](CCCCN)COC(N)=O)C(=O)OC[C@H](N)CCCCN` [Compound DC, Carbamic acid 6-amino-2-{2-[(5-amino-pentyl)-(2,6-diamino-hexyloxycarbonyl)-amino]-acetylamino}-hexyl ester] has a Kd of 5110 nM.
`NCCCCCN(CC(=O)N[C@@H](CCCCN)COC(N)=O)C(=O)[C@@H](N)CCCCN` [Compound DD, Carbamic acid 6-amino-2-{2-[(5-amino-pentyl)-(2,6-diamino-hexanoyl)-amino]-acetylamino}-hexyl ester] showed a Kd of 567 nM.
In the case of `NCCCCCN(CC(=O)N[C@@H](CCCCN)COC(N)=O)C(=O)[C@H](N)CCCCN` [Compound DE, Carbamic acid 6-amino-2-{2-[(5-amino-pentyl)-(2,6-diamino-hexanoyl)-amino]-acetylamino}-hexyl ester], the Kd is reported as 120 nM.
With `NCCCCCNCC(=O)N(CCCCCN)CC(=O)N[C@@H](CCCCN)COC(N)=O` [Compound DF, Carbamic acid 6-amino-2-(2-{(5-amino-pentyl)-[2-(5-amino-pentylamino)-acetyl]-amino}-acetylamino)-hexyl ester] the Kd was 31400 nM.
In the case of `NCCCCCCCNCC(=O)N(CCCCCN)CC(=O)N[C@@H](CCCCN)COC(N)=O` [Compound DG, Carbamic acid 6-amino-2-{2-[[2-(7-amino-heptylamino)-acetyl]-(5-amino-pentyl)-amino]-acetylamino}-hexyl ester], the Kd is reported as 235 nM.
`NCCCCCN(CC(=O)N[C@@H](CCCCN)COC(N)=O)C(=O)CNCCCCN` [Compound DH, Carbamic acid 6-amino-2-{2-[[2-(4-amino-butylamino)-acetyl]-(5-amino-pentyl)-amino]-acetylamino}-hexyl ester] showed a Kd of 7690 nM.
Molecule `N=C(N)NCCC[C@H](N)COC(=O)N(CCCCCN)CC(=O)N[C@@H](CCCCN)COC(N)=O` [Compound DI, Carbamic acid 6-amino-2-{2-[(2-amino-5-guanidino-pentyloxycarbonyl)-(5-amino-pentyl)-amino]-acetylamino}-hexyl ester] has a Kd of 235 nM.
In the case of `NCCCCCN(CC(=O)N[C@@H](CCCCN)COC(N)=O)C(=O)OC[C@H](N)CCC(N)=O` [Compound DJ, Carbamic acid 6-amino-2-{2-[(2-amino-4-carbamoyl-butoxycarbonyl)-(5-amino-pentyl)-amino]-acetylamino}-hexyl ester], the Kd is reported as 603 nM.
`NCCCCCCCN(CC(=O)N[C@@H](CCCCN)COC(N)=O)C(=O)OC[C@@H](N)CCCCN` [Compound DK, Carbamic acid 6-amino-2-{2-[(7-amino-heptyl)-(2,6-diamino-hexyloxycarbonyl)-amino]-acetylamino}-hexyl ester] was tested, and the Kd was 1110 nM.
With `NCCCCCCCN(CC(=O)N[C@@H](CCCCN)COC(N)=O)C(=O)OC[C@H](N)CCCCN` [Compound DL, Carbamic acid 6-amino-2-{2-[(7-amino-heptyl)-(2,6-diamino-hexyloxycarbonyl)-amino]-acetylamino}-hexyl ester] the Kd was 678 nM.
Molecule `NCCCCCCCN(CC(=O)N[C@@H](CCCCN)COC(N)=O)C(=O)[C@@H](N)CCCCN` [Compound DM, Carbamic acid 6-amino-2-{2-[(7-amino-heptyl)-(2,6-diamino-hexanoyl)-amino]-acetylamino}-hexyl ester] has a Kd of 256 nM.
`NCCCCCCCN(CC(=O)N[C@@H](CCCCN)COC(N)=O)C(=O)[C@H](N)CCCCN` [Compound DN, Carbamic acid 6-amino-2-{2-[(7-amino-heptyl)-(2,6-diamino-hexanoyl)-amino]-acetylamino}-hexyl ester] was tested, and the Kd was 678 nM.
`NCCCCCCCN(CC(=O)N[C@@H](CCCCN)COC(N)=O)C(=O)CNCCCCCN` [Compound DO, Carbamic acid 6-amino-2-(2-{(7-amino-heptyl)-[2-(5-amino-pentylamino)-acetyl]-amino}-acetylamino)-hexyl ester] gave a Kd of 1040 nM.
Work on `NCCCCCCCNCC(=O)N(CCCCCCCN)CC(=O)N[C@@H](CCCCN)COC(N)=O` [Compound DP, Carbamic acid 6-amino-2-(2-{(7-amino-heptyl)-[2-(7-amino-heptylamino)-acetyl]-amino}-acetylamino)-hexyl ester] yielded a Kd of 774 nM.
`NCCCCCCCN(CC(=O)N[C@@H](CCCCN)COC(N)=O)C(=O)CNCCCCN` [Compound DQ, Carbamic acid 6-amino-2-{2-[[2-(4-amino-butylamino)-acetyl]-(7-amino-heptyl)-amino]-acetylamino}-hexyl ester] was tested, and the Kd was 6140 nM.
